Assay results from patent publication US8263108B2, “Zero-order prolonged release coaxial implants” (Durect Corporation, priority 2001, dated 2012).

Tests used:
[1] = In vitro dissolution of cromolyn sodium coaxial implants; format: physicochemical; details: 50 wt % cromolyn/PCL core, PBS pH 7.4, 37° C.
Experimental: Coaxial rods were produced by operating the two Randcastle extruders simultaneously. The core material (cromolyn/PCL) was fed through the center orifice of the die on the first extruder to form the implant core. […] Individual implants with a diameter of approximately 2 mm were cut to a length of 2 cm. The exposed ends were sealed with the same polymer as the membrane. Cromolyn release was determined in vitro using a simple dissolution test. Individual implants were placed in 4-oz amber jars with 40 mL of buffer (phosphate buffered saline, pH 7.4, with 0.05% sodium azide) and incubated at 37° C. Periodically, aliquots of buffer were removed and replaced with fresh buffer. The cromolyn concentration in each sample was determined by HPLC.

[2] = Release of interferon from implants incubated in phosphate buffered saline; format: physicochemical; details: 30 vol % NaCl/PCL tubing filled with 20 mg α-interferon suspension in SAIB, ends sealed
Experimental: Using nitrogen gas as the core feed, a mixture comprising 30 vol % NaCl in PCL was extruded as described above through the outer ring of a coaxial die to form tubing having an overall diameter of about 3 mm. Implants containing α-interferon were prepared from the tubing by filling a short length of tubing with a suspension containing 20 mg of α-interferon in sucrose acetate isobutyrate (SAIB) and sealing the ends of the tube.
The implants, when incubated in phosphate buffered saline, released interferon for several days.

| Compound | effect of membrane thickness on release of cromolyn ([1]; 30 vol % cromolyn/PCL membrane (pore-forming agent), FIG. 8) | release from sealed versus unsealed implant ([1]; 30 vol % lactose/PCL membrane, FIG. 9) | duration of interferon release [2] |
| --- | --- | --- | --- |
| O=C(O)c1cc(=O)c2c(OCC(O)COc3cccc4oc(C(=O)O)cc(=O)c34)cccc2o1 [cromolyn, cromolyn sodium] | A thicker polymer membrane causes slower release | the unsealed implant releases faster than the sealed | – |
| α-interferon | – | – | several days |
